Values after ≈ are worked out from the molar mass of the structure shown.
Columns and labels:
Staphylococcus aureus = assay: Antibacterial activity, standard serial dilution technique (MIC); format: cell-based; details: read-out: minimal (bacteriostatic) inhibitory concentration (MIC)
From the text: The antibacterial activities for the compounds of formulas I and II and the compound of formula V where R is pentafluoroethyl were established using standard serial dilution techniques as described by Goss and Cimijotti, Applied Microbiology 16, 1414 (1968).

[1] = test system: platelet aggregate (thrombus); assay: In vivo inhibition of platelet aggregation, modified extracorporeal shunt technique (thrombus deposit weight); design: species or system New Zealand rabbits; details: single dose, 3 hours after medication; for % Inhibition of platelet aggregation (in vivo): P < 0.0005; for x Deposit Weight ± s.d.: mean
From the text: The antithrombotic or platelet aggregation inhibitory effect of the compounds of formulas I and II was further determined by a modified extracorporeal shunt technique in rabbits. Rowntree and Shinoya [J. Exp. Med. 46, 7 (1927)] described a method of extracorporeal circulation for the observation of thrombus formation. Downie et al. [Circulation Res. 12, 441 (1963)] modified this technique in order to study the effects of various chemicals upon the platelet aggregates formed in such a system. The following procedure, a further modification of said technique, was used to determine the antithrombotic activity of the compounds of the invention.
New Zealand rabbits weighing 1.5 to 3.0 kg. each were used for these studies. All animals were dosed orally by stomach tube with the test compound at a given time, e.g., 3, 8, 12, 24, etc. hours, prior to testing the blood samples. Control animals (from 3 to 5 in number for each dose level of compound) were given the vehicle used for solubilizing the compounds tested. All animals were anesthetized with sodium pentobarbital (Pentobrocanal) intravenously, 25-32 mg./kg., and secured to a dissecting board. The right femoral artery was cannulated and connected to a Statham pressure transducer (P 23AC) for continuously measuring arterial blood pressure which was recorded by means of a Grass (Model 7) polygraph.
A longitudinal incision was made in the midcervical region. The jugular vein and the carotid artery on one side were isolated and cannulated with appropriate size catheters filled with saline solution, which were in turn connected via Y-shaped polypropylene connectors establishing the shunt.
The components of the shunt were thoroughly siliconized except for the Y-connector on the arterial side. This connector is weighed prior to running the experiment. A blood sample was withdrawn from the femoral artery to provide a control platelet count. The animal was allowed 10-12 minutes to attain a relatively stable blood pressure level after which the shunt was opened and the blood permitted to flow. The time from the first appearance of blood, in the arterial catheter until its re-entry into the body, via the venous catheter, was measured and recorded, as flow time, which was used to determine the initial rate of flow.
The shunt remained open for a period of twenty minutes. One minute before the end, the femoral catheter was removed from the transducer and a second blood sample was taken. Duplicate platelet counts were made for each sample of blood. The shunt was removed from the animal by pulling out both catheters, arterial and venous, arterial first. The Y-connectors were washed with 10 cc. of saline solution. The arterial Y-connector was separated and dried in an oven overnight at 40°C., then reweighed. The initial weight of the connector was subtracted from the final weight, and the difference is considered to be the mass of the platelet aggregate (thrombus).
(single dose medication), the blood samples having been tested three hours after medication: […]

[2] = test system: Platelet aggregation induced by ADP; details: Oryctolagus cuniculus, read-out: % Inhibition of platelet aggregation induced by ADP
[3] = test system: Platelet aggregation induced by collagen; details: Oryctolagus cuniculus, read-out: % Inhibition of platelet aggregation induced by collagen

## FC(F)(F)C(F)(F)C1NCCc2ccccc21 (stereo not shown) [1,2,3,4-tetrahydro-1-(pentafluoroethyl)isoquinoline]
Staphylococcus aureus
  MIC: ~500 µg/mL (≈ 1990 µM)

## Cl.NC(=NO)N1CCc2ccccc2C1C(F)(F)C(F)(F)F (stereo not shown) [Example 1E]
[1]; 10 mg/kg oral
  % Inhibition of platelet aggregation (in vivo): 17%
  x Deposit Weight ± s.d.: 1.54 ± 0.09
[1]; 25 mg/kg oral
  % Inhibition of platelet aggregation (in vivo): 38%
  x Deposit Weight ± s.d.: 1.16 ± 0.05
[1]; 50 mg/kg oral
  % Inhibition of platelet aggregation (in vivo): 41%
  x Deposit Weight ± s.d.: 1.08 ± 0.08
[2]
  inhibition at 3000 µM: 74.2%
[3]
  inhibition at 100 µM: 24.3%

## NC(=NO)N1CCc2ccccc2C1C(F)(F)C(F)(F)C(F)(F)F (stereo not shown) [Example 2E]
[2]
  inhibition at 1000 µM: 8.3%
[3]
  inhibition at 1000 µM: 94.2%

## NC(=NO)N1Cc2ccccc2CC1C(F)(F)F (stereo not shown) [Example 3E]
[2]
  inhibition at 3000 µM: 64.4%
[3]
  inhibition at 300 µM: 67.4%
